The structures appear in SMILES notation.

One may read the Ki as the equilibrium dissociation constant of an inhibitor or competing ligand from its target. Low values mean higher affinity, high ones lower affinity. As a reminder, the IC50 is the point on the concentration scale where inhibition reaches its midpoint. A low value points to inhibition by little substance.

In assay [1] the target is T1, Protein-S-isoprenylcysteine O-methyltransferase (Saccharomyces cerevisiae S288c, UniProt P32584).
T1 sequence (P32584 whole entry): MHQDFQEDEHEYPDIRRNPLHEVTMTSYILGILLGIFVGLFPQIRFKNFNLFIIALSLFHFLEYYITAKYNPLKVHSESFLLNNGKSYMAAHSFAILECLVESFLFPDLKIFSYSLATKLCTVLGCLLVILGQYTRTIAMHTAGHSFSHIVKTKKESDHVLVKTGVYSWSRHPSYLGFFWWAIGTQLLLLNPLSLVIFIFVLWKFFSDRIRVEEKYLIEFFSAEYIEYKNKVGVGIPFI
The experiment in a line: Inhibitory concentration against isoprenyl-cysteine carboxyl methyltransferase.

Assay [2] deals with T1, Protein-S-isoprenylcysteine O-methyltransferase. As to the kind of experiment: Inhibitory concentration against isoprenyl-cysteine carboxyl methyltransferase by Casey method; Range 7 - 14 uM.

In the case of `CC(=O)NC(C[S+]([O-])C/C=C(\C)CC/C=C(\C)CC/C=C(\C)CCC=C(C)C)C(=O)O` (stereo not given), in assay [1], the Ki was determined as 13.2 µM. `CC(=O)N[C@@H](CSC/C=C(\CC=C(C)C)CC/C=C(\C)CCC=C(C)C)C(=O)O`: in assay [2], the IC50 was 14 µM. In assay [1], this compound returned an IC50 of 44 µM and a Ki of 17.1 µM.

For the compound `CC(C)=CCC/C(C)=C/CC/C(C)=C/CSCC(=O)O` [FARNESYLTHIOACETIC ACID], the affinity in assay [1] corresponds to a Ki of 4.6 µM.

Values taken from ChEMBL document CHEMBL1143650, “Synthesis of desthio prenylcysteine analogs: sulfur is important for biological activity” (Bioorg Med Chem Lett, 2005).
